How the values were obtained:
Serine protease 1 = Serine protease 1 (Rattus norvegicus, UniProt P00762); assay: Enzyme Assay: Inhibition constant of the compound against Trypsin
Prothrombin = Prothrombin (Rattus norvegicus, UniProt P18292); assay: Enzyme Assay: Inhibition constant of the compound against Thrombin
Plasminogen = Plasminogen (Rattus norvegicus, UniProt Q01177); assay: Enzyme Assay: Inhibition constant of the compound against Plasmin
Sequence of Plasminogen (Q01177 97-581 limits assumed): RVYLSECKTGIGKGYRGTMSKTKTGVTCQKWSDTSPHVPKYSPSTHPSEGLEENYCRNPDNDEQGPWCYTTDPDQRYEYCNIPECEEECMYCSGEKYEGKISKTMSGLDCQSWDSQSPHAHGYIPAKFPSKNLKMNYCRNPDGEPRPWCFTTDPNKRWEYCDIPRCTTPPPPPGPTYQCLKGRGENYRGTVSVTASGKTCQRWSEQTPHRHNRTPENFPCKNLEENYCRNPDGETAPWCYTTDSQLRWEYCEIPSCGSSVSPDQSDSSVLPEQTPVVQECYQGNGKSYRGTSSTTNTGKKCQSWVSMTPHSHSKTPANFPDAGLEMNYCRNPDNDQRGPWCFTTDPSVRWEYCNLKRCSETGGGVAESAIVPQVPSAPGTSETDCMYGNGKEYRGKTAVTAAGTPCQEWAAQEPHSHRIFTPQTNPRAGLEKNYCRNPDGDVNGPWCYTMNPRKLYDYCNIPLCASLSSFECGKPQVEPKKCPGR
Sequence of Plasminogen (Q01177 582-812 limits assumed): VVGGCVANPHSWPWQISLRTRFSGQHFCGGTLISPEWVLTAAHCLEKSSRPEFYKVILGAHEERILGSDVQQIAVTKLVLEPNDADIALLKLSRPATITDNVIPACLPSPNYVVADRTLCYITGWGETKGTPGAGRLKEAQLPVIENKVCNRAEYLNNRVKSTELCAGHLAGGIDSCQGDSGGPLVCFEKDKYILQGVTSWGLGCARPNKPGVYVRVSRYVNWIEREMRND

Sequence of Serine protease 1 (P00762 whole entry): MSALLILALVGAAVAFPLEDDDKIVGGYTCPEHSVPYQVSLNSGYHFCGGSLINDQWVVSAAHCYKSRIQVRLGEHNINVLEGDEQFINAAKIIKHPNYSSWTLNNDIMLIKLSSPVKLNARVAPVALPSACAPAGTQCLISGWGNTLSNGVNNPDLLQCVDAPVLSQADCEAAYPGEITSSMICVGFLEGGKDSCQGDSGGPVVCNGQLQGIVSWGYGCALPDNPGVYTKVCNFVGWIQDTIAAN

Compound	Ki (Serine protease 1)	Ki (Prothrombin)	Ki (Plasminogen)
N=C(N)c1ccc(CNC(=O)CNC(=O)[C@@H](CO)NS(=O)(=O)Cc2cccc(C(=O)O)c2)cc1	720 nM	–	–
N=C(N)c1ccc(CNC(=O)CNC(=O)[C@@H](CO)NS(=O)(=O)Cc2ccncc2)cc1	410 nM	1600 nM	37000 nM

Continued by falling Ki (Serine protease 1), values first:

Ki (Serine protease 1)	Ki (Prothrombin)	Ki (Plasminogen)	Compound
280 nM	–	–	N=C(N)c1ccc(CNC(=O)CNC(=O)[C@@H](CO)NS(=O)(=O)Cc2ccc(CN)cc2)cc1
7 nM	–	–	N=C(N)c1ccc(CNC(=O)[C@H](CCCN=C(N)N)NC(=O)[C@@H](CO)NS(=O)(=O)Cc2ccccc2)cc1
6.8 nM	–	–	N=C(N)c1ccc(CNC(=O)[C@H](CCCCN)NC(=O)[C@@H](CO)NS(=O)(=O)Cc2ccccc2)cc1
